Where no end group is shown, it is not given here.
What was measured:
[1] = tested on: spontaneously hypertensive rats (SHR); assay: Antihypertensive effect of GLP in SHR after oral administration; format: in vivo, rat; conditions: captopril 30 mg/kg·bw
Procedure: SHRs (male, 10 weeks, 220 ± 20 g body weight) were supplied by Vital River Laboratory Animal Technology Co., Ltd. (Beijing, China). […] Three doses of GLP (1200, 1500, 1800 mg/kg of body weight, BW) was orally administered to SHRs. The blank group (saline) and Captopril (30 mg/kg·bw) group were used as negative and positive control, respectively. BP-98A blood pressure monitor (Softron Biotechnology, Beijing, China) was used to determine blood pressure by the tail-cuff method. […] Animals were treated in accordance with the guidelines of the National Institutes of Health and Use of Laboratory Animals.

ACE from rabbit lung = target: T1, ACE from rabbit lung (Oryctolagus cuniculus, UniProt P12822); assay: ACE-inhibitory activity assay (HHL substrate, hippuric acid by RP-HPLC); format: biochemical; conditions: HHL 5 mM, pH 8.3, 37 °C, 45 min; for inhibition at 1000 µg/mL: synthetic peptides dissolved at 1 mg/mL; for IC50: synthetic peptides, mean ± SD, SD, read-out: IC50 of ACE inhibition
T1 construct: ACE from rabbit lung (EC3.4.15.1); purchased Sigma-Aldrich; host or cells: rabbit lung tissue
T1 sequence (P12822 34-1310): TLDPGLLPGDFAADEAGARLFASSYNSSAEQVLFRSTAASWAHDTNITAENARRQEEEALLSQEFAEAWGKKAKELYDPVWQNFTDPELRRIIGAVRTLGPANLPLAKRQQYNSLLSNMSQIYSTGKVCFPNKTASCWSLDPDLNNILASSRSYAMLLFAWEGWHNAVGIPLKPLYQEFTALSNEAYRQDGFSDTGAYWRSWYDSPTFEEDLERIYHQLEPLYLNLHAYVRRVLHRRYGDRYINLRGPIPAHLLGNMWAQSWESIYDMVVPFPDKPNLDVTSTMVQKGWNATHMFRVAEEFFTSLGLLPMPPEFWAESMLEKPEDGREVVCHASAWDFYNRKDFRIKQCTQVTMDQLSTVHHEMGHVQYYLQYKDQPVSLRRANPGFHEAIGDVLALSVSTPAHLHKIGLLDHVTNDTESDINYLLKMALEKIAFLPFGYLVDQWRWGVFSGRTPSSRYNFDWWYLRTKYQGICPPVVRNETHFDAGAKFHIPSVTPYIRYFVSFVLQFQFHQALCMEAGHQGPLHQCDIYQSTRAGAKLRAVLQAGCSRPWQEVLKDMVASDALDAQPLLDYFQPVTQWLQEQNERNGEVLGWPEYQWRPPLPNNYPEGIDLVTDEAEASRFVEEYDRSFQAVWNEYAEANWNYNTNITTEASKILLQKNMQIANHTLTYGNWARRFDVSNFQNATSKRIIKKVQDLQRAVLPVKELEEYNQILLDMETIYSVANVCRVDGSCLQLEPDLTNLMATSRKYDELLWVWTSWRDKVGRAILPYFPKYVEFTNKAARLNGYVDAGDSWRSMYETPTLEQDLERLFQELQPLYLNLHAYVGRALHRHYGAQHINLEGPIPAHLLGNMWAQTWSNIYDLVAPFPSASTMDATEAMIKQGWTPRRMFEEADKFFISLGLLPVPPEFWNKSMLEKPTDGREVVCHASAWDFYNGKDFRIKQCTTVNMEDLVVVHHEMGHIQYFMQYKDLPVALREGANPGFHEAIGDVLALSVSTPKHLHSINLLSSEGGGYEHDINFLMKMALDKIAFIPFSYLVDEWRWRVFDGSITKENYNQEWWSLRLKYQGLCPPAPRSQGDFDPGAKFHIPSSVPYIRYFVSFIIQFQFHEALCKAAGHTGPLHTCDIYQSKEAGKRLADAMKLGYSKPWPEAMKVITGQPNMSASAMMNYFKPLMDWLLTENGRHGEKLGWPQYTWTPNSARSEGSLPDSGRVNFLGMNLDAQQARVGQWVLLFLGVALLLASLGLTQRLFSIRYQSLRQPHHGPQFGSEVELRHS
Procedure: The ACE-inhibitory activity was determined according to the method of Ma et al., with some modification. Briefly, 50 µL of sample in 0.1 mol/L borate buffer (pH 8.3, containing 0.3 M NaCl) was mixed with 150 µL of 5 mM hippuryl-l-histidyl-l-leucine (HHL) and incubated at 37 °C for 10 min. Then, the reaction was initiated by adding 50 µL of ACE solution (50 mU/mL) and incubating at 37 °C for 45 min. The reaction was then stopped by the addition of 250 µL of 1 M HCl. The formation of hippuric acid (HA) was measured by RP-HPLC (Waters, Milford, MA, USA) at 220 nm.
The screened and predicted potential ACE-inhibitory peptides were chemically synthesized at Genscript biotech corporation (Nanjing, China) using the Fmoc solid-phase method. […] Synthetic peptides were dissolved at 1 mg/mL for validation of their ACE-inhibitory activity.

Row | inhibition at 1000 µg/mL (ACE from rabbit lung) [%] | IC50 (ACE from rabbit lung) [µM] | Compound | time course of antihypertensive effect compared with GLP [1]
1 |  |  | C[C@H](CS)C(=O)N1CCC[C@H]1C(=O)O [captopril] | reached its maximum effect faster than GLP
2 | 87.7 | 9.18 ± 0.42 | RLVPVPY [RLVPVPY] | 
3 | 94.2 | 6.45 ± 0.22 | SFYYGK [SFYYGK] | 
